Experiments:
[1] = biological target: L. chagasi PTR1 and DHFR-TS; design: method as in PMID 31409157; details: L. chagasi PTR1 vs DHFR-TS; cited from earlier work
[2] = biological target: T1, L. major dihydrofolate reductase (LmDHFR), recombinant LmDHFR-TS (Leishmania major, UniProt P07382); assay: LmDHFR-TS enzyme inhibition assay (spectrophotometric, standard DHFR conditions); assay type: biochemical
T1 construct: made in house
Method: Then, using the Cheng–Prusoff equation and assuming reversible competitive inhibition and a 1:1 stoichiometry, the apparent inhibitory constant (Ki^app) was calculated for the selected kauranes using the IC50 results, as shown in Table 1.
Purification and kinetic characterization of the recombinant LmDHFR-TS protein was performed according to the previously reported procedures. The in vitro evaluation of selected diterpenoids (i.e., 4, 135, 301, 302, 301a, and 302a) for inhibitory activity against LmDHFR-TS was conducted using a spectrophotometric assay under standard DHFR conditions. The assay consisted of LmDHFR (2.7 nM), bovine serum albumin (BSA, 1 mg/mL), N-[tris(hydroxymethyl)-methyl]-2-aminoethanesulfonic acid (TES) buffer (100 mM, pH 7.0, […] β-mercaptoethanol, 2 mM ethylenediaminetetraacetic acid (EDTA)), and nicotinamide adenine dinucleotide phosphate (NADPH, 100 μM) with varying concentrations of the test compounds (0.1–128 μM). The reaction was initiated by adding the substrate (7,8-dihydrofolate (H2F), 20 μM) and was monitored for 360 s at 340 nm (i.e., oxidation of NADPH to NADP+) to determine the initial reaction rate (Vo) through linear regression analysis of the resulting absorbance profile. […] The Ki^app values were finally calculated using the Cheng–Prusoff equation for competitive inhibition with a 1:1 stoichiometry and reversible inhibitor-binding reactions: Ki^app = IC50/(1 + [S]/Km), where [S] is the substrate (H2F) concentration and Km is the Michaelis constant.

[3] = tested on: Leishmania major PTR1 (LmPTR1); design: method as in PMID 34063939; details: previous study; cited from earlier work
[4] = biological target: T1, L. major dihydrofolate reductase (LmDHFR), recombinant LmDHFR-TS; assay: LmDHFR-TS enzyme inhibition assay (spectrophotometric, standard DHFR conditions); assay type: biochemical; details: cutoff pIC50 value of the L. major machine learning model
[5] = IC50, LmDHFR 2.7 nM, NADPH 100 μM, H2F 20 μM, test compounds 0.1–128 μM, triplicate

T1 sequence (P07382 whole entry): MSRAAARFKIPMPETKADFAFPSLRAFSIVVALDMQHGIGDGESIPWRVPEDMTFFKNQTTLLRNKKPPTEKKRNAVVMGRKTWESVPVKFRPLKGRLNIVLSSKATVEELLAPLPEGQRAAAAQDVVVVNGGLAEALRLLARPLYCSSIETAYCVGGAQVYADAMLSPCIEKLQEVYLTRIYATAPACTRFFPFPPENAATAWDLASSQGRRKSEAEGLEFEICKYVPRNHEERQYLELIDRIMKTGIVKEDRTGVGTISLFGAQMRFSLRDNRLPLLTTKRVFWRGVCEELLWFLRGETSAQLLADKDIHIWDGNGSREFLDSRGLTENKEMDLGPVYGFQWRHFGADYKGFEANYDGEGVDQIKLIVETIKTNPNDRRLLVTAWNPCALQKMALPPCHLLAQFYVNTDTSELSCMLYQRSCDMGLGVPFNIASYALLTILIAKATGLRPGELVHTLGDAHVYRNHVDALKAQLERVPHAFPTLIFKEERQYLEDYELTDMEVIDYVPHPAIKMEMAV

Q: For Nc1nc(N)c(Cc2ccccc2)c(CC2CCCCC2)n1 [2,4-diamine, 5-benzyl-6-(cyclohexylmethyl) pyrimidine-2,4-diamine], which “Ki^Lc^PTR1/Ki^Lc^DHFR-TS ratio” value [1] is on record?
A: 0.68

Q: Which Ki [2] does the source give for CC1(C)OCC2(CC34CCC5C(C)(C)C(=O)CCC5(C)C3CCC2C4)O1 (stereo not drawn) [structure 4, 16ß,17-Isopropylidenedioxy-ent-kauran-3-one] here?
A: 0.81 µM

Q: What about the IC50 [2, 5] of the same compound?
A: 7.6 µM

Q: Which Ki [2] does the source give for C=C1CC23CCC4C(C)(C(=O)OC5C=C(C)C(O)CC5C(C)C)CCCC4(C)C2CCC1C3 (stereo not drawn) [structure 135, 2β-hydroxy-menth-6-en-5β-yl ent-kaurenoate] here?
A: 1.2 µM

Q: And the IC50 [2, 5]?
A: 11.2 µM

Q: Which Ki [2] does the source give for C=C1CC23CCC4C(C)(C(=O)O)C(OC(=O)C=Cc5ccccc5)CCC4(C)C2(O)CCC1C3 (stereo not drawn) [structure 301, 3α-cinnamoyloxy-9β-hydroxy-ent-kaur-16-en-19-oic Acid] here?
A: 0.94 µM

Q: What about the IC50 [2, 5] of the same compound?
A: 8.8 µM

Q: And the IC50 ([2]; pIC50, pIC50 = −log IC50)?
A: < 10 µM

Q: And the “classification against PTR1” value [3]?
A: inactive

Q: What about the “classification against DHFR-TS” value [4] of the same compound?
A: active

Q: For C=C1CC23CCC4C(C)(C(=O)O)C(OC(=O)C=Cc5ccc(O)cc5)CCC4(C)C2(O)CCC1C3 (stereo not drawn) [structure 301a, 3α-p-coumaroyloxy-9β-hydroxy-ent-kaur-16-en-19-oic acid], which Ki [2] is on record?
A: 0.85 µM

Q: And the IC50 [2, 5]?
A: 7.9 µM

Q: And the “reduction of Ki^app compared to kauranes 301 and 302” value ([2]; effect of p-hydroxyl group, 301a vs 301, 302a vs 302)?
A: 10%

Q: And the IC50 ([2]; pIC50, pIC50 = −log IC50)?
A: < 10 µM

Q: What about the “classification against PTR1” value [3] of the same compound?
A: inactive

Q: For C=C1CC23CCC4C(C)(CCC(OC(=O)C=Cc5ccccc5)C4(C)C(=O)O)C2CCC1C3 (stereo not drawn) [structure 302, 3α-cinnamoyloxy-ent-kaur-16-en-19-oic acid], which Ki [2] is on record?
A: 0.68 µM

Q: What about the IC50 [2, 5] of the same compound?
A: 6.3 µM

Q: And the IC50 ([2]; pIC50, pIC50 = −log IC50)?
A: < 10 µM

Q: What about the “half-maximal inhibitory concentrations (IC50) against PTR1” value [3] of the same compound?
A: less than 10 µg/mL

— publication PMC10135059, “Kaurane-Type Diterpenoids as Potential Inhibitors of Dihydrofolate Reductase-Thymidylate Synthase in New World Leishmania Species” (Antibiotics, 2023)
